SMILES strings stand for the structures.

As usually defined, the IC50 is the point on the concentration scale where inhibition reaches its midpoint.

One experiment addresses T1, GlyT1 (Homo sapiens, UniProt P48067).
T1 construct: Human placental choriocarcinoma cells endogenously expressing GlyT1 can be cultured using standard conditions; host or cells: JAR human placental choriocarcinoma cells
T1 sequence (P48067 1-706): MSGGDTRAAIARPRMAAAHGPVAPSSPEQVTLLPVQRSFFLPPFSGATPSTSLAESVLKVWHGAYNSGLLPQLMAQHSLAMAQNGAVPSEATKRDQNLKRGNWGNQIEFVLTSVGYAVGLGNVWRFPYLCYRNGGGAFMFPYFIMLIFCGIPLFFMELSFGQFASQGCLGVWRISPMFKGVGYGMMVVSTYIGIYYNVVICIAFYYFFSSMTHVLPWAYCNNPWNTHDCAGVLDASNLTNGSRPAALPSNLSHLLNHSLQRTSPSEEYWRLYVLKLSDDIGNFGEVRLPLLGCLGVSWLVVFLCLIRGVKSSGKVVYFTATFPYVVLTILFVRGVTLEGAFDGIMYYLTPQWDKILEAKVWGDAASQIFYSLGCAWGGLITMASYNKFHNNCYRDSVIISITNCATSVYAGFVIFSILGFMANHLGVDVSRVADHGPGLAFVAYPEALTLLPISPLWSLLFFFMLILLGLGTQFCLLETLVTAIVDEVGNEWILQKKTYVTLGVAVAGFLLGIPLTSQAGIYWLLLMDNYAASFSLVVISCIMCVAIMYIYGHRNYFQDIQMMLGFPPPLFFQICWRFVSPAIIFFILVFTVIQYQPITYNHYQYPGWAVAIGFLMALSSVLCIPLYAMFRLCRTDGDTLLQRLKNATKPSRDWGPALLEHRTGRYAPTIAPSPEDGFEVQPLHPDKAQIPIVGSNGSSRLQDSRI
The experiment in a line: [14C]-glycine uptake in JAR cells endogenously expressing GlyT1 (Cytostar T scintillation proximity). The class given is cell-based. The settings on record: inhibition of [14C]-glycine uptake (10 μM), JAR cells, 3 h; read-out: Potency (IC50). As to the method: Human placental choriocarcinoma cells endogenously expressing GlyT1 can be cultured using standard conditions. Cells can then be grown at 37° C. in a humidified atmosphere 40-48 hours before the assay. Culture medium can be removed from the culture plate, and cells can be incubated with an amount of TBlA buffer with or without the compounds of the present invention for a sufficient period of time. Then an amount of [^14C]-glycine diluted with TBlA can be added to each well. After incubation the microplates can be sealed and counted. Non-specific uptake of [^14C]-glycine can be determined in the presence of unlabeled glycine. To determine potencies, a range of concentrations of the compounds of the present invention can be added to the cells, followed by the fixed concentration of [^14C]-glycine. The concentration of the present compound that inhibited half of the specific uptake of [^14C]glycine (IC50 value) can be determined from the assay data by non-linear curve fitting.
The procedure used was analogous to that disclosed in Williams, J. B.; Mallorga P. J.; Lemaire W.; Williams D. L.; Na S.; Patel S.; Conn J. P.; Pettibone D. J.; Austin C.; Sur C.; “Development of a scintillation proximity assay for analysis of Na+/Cl−-dependent neurotransmitter transporter activity,” ANAL. BIOCHEM.
Cells were plated at a density of 1.3×10^4 cells/well and grown at 37° C. in a humidified atmosphere of 5% CO2 for 40-48 h. Culture medium was removed from the Cytostar T plate and JAR cells were incubated with 30 μl A of TBlA buffer (120 mM NaC1, 2 mM KCl, 1 mM CaCl2, 1 mM MgCl2, 10 mM Hepes, 5 mM L-alanine, pH 7.5 adjusted with 1 M Tris base) with or without multiple concentrations of test compound (added at 2× final concentration) for 1 min. Then 30 μl of [^14C]-glycine (Perkin-Elmer) diluted in TBlA was added to each well to give a final concentration of 10 μM. Cytostar T plates were then incubated in the dark at room temperature for 3 h, sealed with opaque white bottom plate seals (Perkin-Elmer) and clear top plate seals (Topseal A, Perkin-Elmer), and were counted on a Top Count (Packard). Glycine uptake was determined by measuring radioactivity in each well and plotted as a function of concentration of test compound. […] Nonspecific uptake of [^14C]-glycine was determined in the presence of 10 mM cold glycine. [^14C]-taurine (American Radiolabeled Chemicals, Inc.) uptake experiments were performed according to the same protocol except that 10 mM cold taurine was used to determine nonspecific uptake. […] COS-7 cells were transiently transfected with the human GlyT2 cDNA (Origene Technologies Inc., SC303452) using Fugene 6 (Roche) according to the manufacturer's instructions in Dulbecco's modified Eagle's medium (DMEM, Invitrogen) containing 10% Fetal Bovine Serum, 10 mM HEPES, 1 mM sodium pyruvate, penicillin (100 μg/ml), and streptomycin (100 μg/ml). The following day, the cells were plated at a density of 5×10^5 cells/well in Cytostar T plates and maintained at 37° C. in a humidified atmosphere of 5% CO2 for 24 h. GlyT2 glycine uptake experiments were performed according to the same protocol previously described.
Consider `Cn1cnc(S(=O)(=O)N2CC3CCC(NC(=O)c4ccc(F)c(F)c4)C3C2)c1` (centres unmarked) [Compound 7j, 3,4-difluoro-N-(2-(1-methyl-1H-imidazol-4-ylsulfonyl)octahydrocyclopenta[c]pyrrol-4-yl)benzamide], for which the half-inhibitory concentration (IC50) was determined as 903 nM.

The experiment is the same for the next values; noted with them: read-out: Potency (IC50).
In the case of `Cn1cnc(S(=O)(=O)N2CC3CCC(NC(=O)c4ccccc4Cl)C3C2)c1` (centres unmarked) [Compound 7b, 2-chloro-N-(2-(1-methyl-1H-imidazol-4-ylsulfonyl)octahydrocyclopenta[c]pyrrol-4-yl)benzamide], the IC50 came out at 101 nM.
Same read-out and setting: the value for `Cn1cnc(S(=O)(=O)N2CC3CCC(NC(=O)c4ccc(Cl)cc4)C3C2)c1` (centres unmarked) [Compound 7c, 4-chloro-N-(2-(1-methyl-1H-imidazol-4-ylsulfonyl)octahydrocyclopenta[c]pyrrol-4-yl)benzamide] was 1030 nM; that for `Cn1cnc(S(=O)(=O)N2CC3CCC(NC(=O)c4ccccc4C(F)(F)F)C3C2)c1` (centres unmarked) [Compound 7d, N-(2-(1-methyl-1H-imidazol-4-ylsulfonyl)octahydrocyclopenta[c]pyrrol-4-y1)-2-(trifluoromethyl)benzamide] was 78 nM; that for `Cn1cnc(S(=O)(=O)N2CC3CCC(NC(=O)c4ccc(F)cc4F)C3C2)c1` (centres unmarked) [Compound 7e, 2,4-difluoro-N-(2-(1-methy1-1H-imidazol-4-ylsulfonyl)octahydrocyclopenta[c]pyrrol-4-yl)benzamide] was 925 nM.
Consider `Cn1cnc(S(=O)(=O)N2CC3CCC(NC(=O)c4ccccc4F)C3C2)c1` (centres unmarked) [Compound 7f, 2-fluoro-N-(2-(1-methyl-1H-imidazol-4-ylsulfonyl)octahydrocyclopenta[c]pyrrol-4-yl)benzamide], for which the half-maximal inhibitory concentration (IC50) turned out to be 1800 nM.
On the same count and under the same terms, with `Cn1cnc(S(=O)(=O)N2CC3CCC(NC(=O)c4ccc(Cl)c(Cl)c4)C3C2)c1` (centres unmarked) [Compound 7g, 3,4-dichloro-N-(2-(1-methyl-1H-imidazol-4-ylsulfonyl)octahydrocyclopenta[c]pyrrol-4-yl)benzamide] the figure was 891 nM; with `Cn1cnc(S(=O)(=O)N2CC3CCC(NC(=O)c4ccc(F)cc4)C3C2)c1` (centres unmarked) [Compound 7h, 4-fluoro-N-(2-(1-methyl-1H-imidazol-4-ylsulfonyl)octahydrocyclopenta[c]pyrrol-4-yl)benzamide], 2200 nM; with `Cn1cnc(S(=O)(=O)N2CC3CCC(NC(=O)c4c(F)cccc4F)C3C2)c1` (centres unmarked) [Compound 7i, 2,6-difluoro-N-(2-(1-methy1-1H-imidazol-4-ylsulfonyl)octahydrocyclopenta[c]pyrrol-4-yl)benzamide], 630 nM.
On the same count and under the same terms, with `CCCS(=O)(=O)N1CC2CCC(NC(=O)c3ccc(Cl)cc3Cl)C2C1` (centres unmarked) [Compound 71, 2,4-dichloro-N-(2-(propylsulfonyl)octahydrocyclopenta[c]pyrrol-4-yl)benzamide] the figure was 7000 nM.

Still in this experiment, the particulars now being: result in words; inhibition of [14C]-glycine uptake (10 μM), JAR cells, 3 h.
Consider `Cn1cnc(S(=O)(=O)N2CC3CCC(NC(=O)c4ccc(Cl)cc4Cl)C3C2)c1` (centres unmarked) [Compound 5b, 2,4-dichloro-N-(2-(1-methyl-1H-imidazol-4-ylsulfonyl)octahydrocyclopenta[c]pyrrol-4-yl)benzamide], for which the “Potency (IC50)” value is listed as “Inactive”.

For the origin of these results see patent US8211933B2, “3.3.0 bicyclic GlyT1 inhibitors and methods of making and using same” (Vanderbilt University, priority 2008, dated 2012).
